Experimental data from article PMC8279416, “Structural Fine-Tuning of Desmuramylpeptide NOD2 Agonists Defines Their In Vivo Adjuvant Activity” (Journal of Medicinal Chemistry, 2021).
“And” between values parts separate entries of the source, which are not always exact repeats. Identical values can stand only once. Blank lines part the entries; values can stand above or below the compound they belong to.

How the values were obtained:
NOD2 = molecular target: T1, NOD2 (Homo sapiens, UniProt Q9HC29); assay: HEK-Blue NOD2 cell line reporter assay (NF-κB-inducible SEAP); type: cell-based; details: for NOD2 activity at 2 μM (fold increase) / EC50 / NOD2 activation (in words): HEK-Blue NOD2 cells; for NOD2 activity at 2 μM (fold increase): NF-κB transcriptional (SEAP) activity relative to 0.1% DMSO; for NOD2 activation (in words): compound alone
T1 construct: host or cells: HEK-Blue NOD2 cells (HEK293-derived)
T1 sequence (Q9HC29 whole entry): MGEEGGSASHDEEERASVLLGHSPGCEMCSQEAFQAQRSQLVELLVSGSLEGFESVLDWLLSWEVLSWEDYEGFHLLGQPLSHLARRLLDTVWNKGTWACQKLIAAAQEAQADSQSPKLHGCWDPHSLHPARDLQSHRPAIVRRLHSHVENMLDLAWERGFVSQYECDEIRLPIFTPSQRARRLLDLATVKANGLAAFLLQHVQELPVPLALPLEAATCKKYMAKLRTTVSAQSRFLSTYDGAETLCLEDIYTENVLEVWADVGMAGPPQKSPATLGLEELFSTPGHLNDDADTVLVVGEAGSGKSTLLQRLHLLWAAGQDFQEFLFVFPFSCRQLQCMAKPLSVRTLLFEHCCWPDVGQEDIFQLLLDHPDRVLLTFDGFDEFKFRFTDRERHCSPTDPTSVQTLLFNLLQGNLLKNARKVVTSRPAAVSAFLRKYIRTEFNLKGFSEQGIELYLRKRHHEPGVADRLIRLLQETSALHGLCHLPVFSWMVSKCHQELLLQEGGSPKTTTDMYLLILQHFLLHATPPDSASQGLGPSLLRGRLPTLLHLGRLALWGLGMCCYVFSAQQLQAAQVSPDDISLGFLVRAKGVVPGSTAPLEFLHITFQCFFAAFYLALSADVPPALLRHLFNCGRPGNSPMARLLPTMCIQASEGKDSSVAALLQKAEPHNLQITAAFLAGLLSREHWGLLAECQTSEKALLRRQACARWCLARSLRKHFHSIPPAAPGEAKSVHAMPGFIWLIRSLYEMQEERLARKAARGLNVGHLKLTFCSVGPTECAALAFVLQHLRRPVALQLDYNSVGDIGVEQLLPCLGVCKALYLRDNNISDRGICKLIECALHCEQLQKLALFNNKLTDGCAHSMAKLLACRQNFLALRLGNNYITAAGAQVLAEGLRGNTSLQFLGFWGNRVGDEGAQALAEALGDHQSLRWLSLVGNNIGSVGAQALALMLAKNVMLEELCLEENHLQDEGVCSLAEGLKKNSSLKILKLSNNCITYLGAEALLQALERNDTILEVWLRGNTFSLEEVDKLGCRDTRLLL
Procedure: To determine the NOD2 agonistic potential of the synthesized desmuramylpeptides at the cellular level, we used the validated and commercially available HEK-Blue NOD2 cell line reporter assay. HEK-Blue NOD2 cells were first treated for 18 h with MDP, 1, or the novel desmuramylpeptides at 2 μM. The NF-κB transcriptional activity measured was normalized to that of the vehicle treated (0.1% DMSO) control HEK-Blue NOD2 cells.
HEK-Blue NOD2 and NOD1 cell line reporter assays are derived from HEK293 cells by cotransfection of the hNOD2 or hNOD1 genes, respectively, and an NF-κB-inducible secreted embryonic alkaline phosphatase (SEAP) reporter gene. Following activation of NOD2 or NOD1, the resulting NF-κB induces production of SEAP, the levels of which can be quantified colorimetrically. […] After 18 h of incubation (37 °C, 5% CO2), secreted embryonic alkaline phosphatase (SEAP) activity was determined spectrophotometrically as absorbance at 630 nm (BioTek Synergy microplate reader; Winooski, VT, U.S.A.). EC50 values were calculated using Prism software (version 9; GraphPad Software, CA, U.S.A.). For determination of specificity, HEK-Blue NOD2 cells (2.5 × 10^5 cells/mL) were first pretreated for 1 h with a 10 μM NOD2 antagonist, before the addition of the compounds (2 μM), with incubation for 18 h. SEAP activity in the supernatants was determined as above. The experiments were run in duplicate and repeated as at least two independent biological replicates.

NIH/OlaHsd mice [1] = assay: In vivo ovalbumin-specific antibody response, first experiment (neutral liposomes); design: species or system mouse
Procedure: To determine whether enhanced antigen presentation in vitro is correlated to in vivo adjuvant activities, an immunization study was performed in a murine model of adjuvanticity. Specifically, the selected desmuramylpeptides were investigated for induction of systemic immune responses against the model antigen ovalbumin. Seven groups of NIH/OlaHsd mice were immunized with ovalbumin-containing neutral liposomes, either alone or with additional adjuvants of MDP or the desmuramylpeptides 1, 68, 74, 75, or 81. After immunization and one booster dose, the mice sera were collected and assayed for ovalbumin-specific IgG antibodies (Figure 10).
(§1) Multilamellar liposomes were prepared by the modified thin lipid film method as described previously.[130],[131] For the preparation of neutral liposomes, a 7:5 molar ratio of egg-phosphatidylcholine and cholesterol was used. For the preparation of negatively charged liposomes, a 7:5:1 molar ratio of egg-phosphatidylcholine, cholesterol, and dicetylphosphate was used, while a 7:5:0.5 molar ratio of egg-phosphatidylcholine, cholesterol, and Man-PEG-Pam was used in the preparation of mannosylated liposomes. Lipids (total lipid concentration, 4 mg/mL) were dissolved in chloroform/methanol (2:1). A methanol or chloroform/methanol solution of MDP or the desmuramylpeptides was added to the lipid solution for a final concentration of 2 mM and 1.5 mM for the first (Figure 10) and second (Figure 11) experiments, respectively. After rotary evaporation of the solvent, the remaining lipid film was dried in vacuum for 1 h and then dispersed by gentle handshaking in an ovalbumin solution in saline (0.0667 and 0.1 mg/mL for the first and second experiments, respectively). This was then left overnight at 4 °C to swell and stabilize. Liposome size was reduced by sonification. Nonentrapped material was not separated from liposomes, and the complete liposome suspension was used for immunizations.
(§2) For the first experiment (Figure 10), sex-matched NIH/OlaHsd mice (five per group) were immunized subcutaneously in the tail base and boosted one time after 21 days. The injection volume in all experimental groups was 0.15 mL per mouse, which corresponds to 10 μg of OVA, […], and 0.30 μmol of MDP and desmuramylpeptides. For the second experiment (Figure 11), sex-matched NIH/OlaHsd mice (five per group) were immunized and boosted two times subcutaneously into the tail base at 21-day intervals. The injection volume in all experimental groups was 0.1 mL per mouse, which corresponds to 10 μg of OVA, 400 μg of lipids, and 0.15 μmol of MDP and 75. The mice were anesthetized with ip application of ketamine/xylazine (25 mg/kg each) prior to blood collection from the axillary plexus on the seventh day after the last booster dose. Individual serum from each animal was decomplemented at 56 °C for 30 min and then stored at −20 °C until tested.
(§3) ELISA assays were performed as detailed previously.[46] Briefly, high-binding ELISA plates (Costar, U.S.A.) were coated with a 15 μg/mL solution of ovalbumin in carbonate buffer, pH 9.6, and incubated overnight at room temperature. Nonspecific antibody binding was blocked with 0.5% w/v bovine serum albumin in PBS-T (0.05% (v/v) Tween 20 in phosphate-buffered saline) for 2 h at 37 °C. After washing, five serial dilutions of mice sera and standard preparations were added in duplicate. Plates were incubated overnight at room temperature, washed, and analyzed for ovalbumin-specific IgG levels by incubation with HRP-conjugated goat anti-mouse IgG (2 h at 37 °C) and then, after washing, with 0.6 mg/mL o-phenylenediaminedihydrochloride solution in citrate-phosphate buffer, pH 5.0, with 0.5 μL of 30% H2O2 per milliliter for 30 min at room temperature in the dark. The enzymatic reaction was stopped with 12.5% H2SO4, and absorbance at 492 nm was measured using a microplate reader (Thermo Fisher Scientific, Waltham, MA, U.S.A.). […]

NIH/OlaHsd mice [2] = assay: In vivo ovalbumin-specific antibody response, second experiment (neutral, anionic, mannosylated liposomes); design: species or system mouse; details: for Ovalbumin-specific IgG response (in words): 0.15 μmol adjuvant per dose; for Log10 (anti-OVA IgG1/anti-OVA IgG2a): second in vivo experiment, 0.15 μmol adjuvant, one week after second booster, mean ± SEM of 5 mice
Procedure: To determine whether the adjuvanticity of 75 can be modulated through changes to the liposomal formulation, a second in vivo experiment was designed in which the adjuvant activities of three different liposomal compositions were compared. Neutral liposomes were prepared from egg phosphatidylcholine and cholesterol.
as §1, §2
as §3, with “U.S.A.). For the determination of ovalbumin-specific IgG1 and IgG2a, the plates were incubated with biotin-conjugated rat anti-mouse IgG1 or IgG2a (2 h at 37 °C) and subsequently with streptavidin–peroxidase for another 2 h at 37 °C. After washing, the substrate solution was added and incubated for 30 min at room temperature in the dark, as described above.” for “U.S.A.).”

[3] = 18 h, 7 or 8 concentrations 1 nM to 20 μM, mean ± SEM
[4] = neutral liposomes, 0.30 μmol adjuvant per dose, 1 week after booster

- EC50 (NOD2; [3]): 0.148 ± 0.026 µM
Compound: CC(=O)N[C@H]1C(O)O[C@H](CO)[C@@H](O)[C@@H]1O[C@H](C)C(=O)N[C@@H](C)C(=O)N[C@H](CCC(=O)O)C(N)=O (stereo partly drawn) [MDP, muramyl dipeptide, reference compound]
- NOD2 activity at 2 μM (fold increase) (NOD2; 18 h, mean ± SEM): 2.83 fold increase and 2.83 ± 0.16 fold increase
- Log10 (anti-OVA IgG1/anti-OVA IgG2a) (NIH/OlaHsd mice [1]; first in vivo experiment, one week after the booster dose, mean ± SEM of 5 mice): 2.43 ± 0.25
- Ovalbumin-specific IgG1 response (in words) (NIH/OlaHsd mice [1]; [4]): significant increases in IgG1 generation
- Ovalbumin-specific IgG2a response (in words) (NIH/OlaHsd mice [1]; [4]): only marginal increases in IgG2a
- Adjuvant activity: ovalbumin-specific IgG (in words) (NIH/OlaHsd mice [1]; neutral liposomes, 0.30 μmol adjuvant per dose, s.c., 1 week after booster): moderately enhanced
- Ovalbumin-specific IgG2a response (in words) (NIH/OlaHsd mice [2]; all liposomal compositions, compared to liposomes without adjuvant): remained unchanged
- Ovalbumin-specific IgG response (in words) (NIH/OlaHsd mice [2]; mannosylated liposomes): strongest immunogenicity
- Ovalbumin-specific IgG response (in words) (NIH/OlaHsd mice [2]; negatively charged liposomes): stronger IgG response
- Ovalbumin-specific IgG response (in words) (NIH/OlaHsd mice [2]; neutral liposomes): weakest adjuvant activities
- Log10 (anti-OVA IgG1/anti-OVA IgG2a) (NIH/OlaHsd mice [2]; anionic liposomes): 2.85 ± 0.10
- Log10 (anti-OVA IgG1/anti-OVA IgG2a) (NIH/OlaHsd mice [2]; mannosylated liposomes): 2.48 ± 0.19
- Log10 (anti-OVA IgG1/anti-OVA IgG2a) (NIH/OlaHsd mice [2]; neutral liposomes): 3.02 ± 0.17

- NOD2 activity at 2 μM (fold increase) (NOD2; 18 h, mean ± SEM): 3.02 ± 0.07 fold increase
- EC50 (NOD2; [3]): 0.049 ± 0.004 µM
Compound: CCOC(=O)CC[C@@H](NC(=O)[C@@H](NC(=O)CNC(=O)/C=C/c1ccc([N+](=O)[O-])cc1)C(C)C)C(=O)OCC [Compound 26, Diethyl ((E)-3-(4-Nitrophenyl)acryloyl)glycyl-L-valyl-D-glutamate]

- NOD2 activity at 2 μM (fold increase) (NOD2; 18 h, mean ± SEM): 1.20 ± 0.10 fold increase
- NOD2 activation (in words) (NOD2): markedly reduced NOD2 activation
Compound: COc1cc(/C=C/C(=O)NCC(=O)N[C@H](C(=O)N[C@H](CCC(=O)OC(C)(C)C)C(=O)OC(C)(C)C)C(C)C)ccc1O [Compound 56, Di-tert-butyl ((E)-3-(4-Hydroxy-3-methoxyphenyl)acryloyl)glycyl-L-valyl-D-glutamate]

- NOD2 activity at 2 μM (fold increase) (NOD2; 18 h, mean ± SEM): 1.32 ± 0.02 fold increase
Compound: CCCCCCCCCCCCCCCCCCOC(=O)CC[C@@H](NC(=O)[C@@H](NC(=O)CNC(=O)/C=C/c1ccc(O)c(OC)c1)C(C)C)C(=O)OCCCCCCCCCCCCCCCCCC [Compound 72, Dioctadecyl ((E)-3-(4-Hydroxy-3-methoxyphenyl)acryloyl)glycyl-L-valyl-D-glutamate]
- NOD2 activation (in words) (NOD2): almost completely abrogated the NOD2 agonistic activity

- EC50 (NOD2): 6.16 µM
- NOD2 activity at 2 μM (fold increase) (NOD2; 18 h, mean ± SEM): 1.97 ± 0.05 fold increase
- EC50 (NOD2; [3]): 6.16 ± 0.842 µM
- Decrease of NOD2 agonistic activity/potency by a factor, relative to 1 (NOD2; ratio of EC50 versus compound 1): 70
Compound: CCOC(=O)CC[C@@H](NC(=O)[C@@H](NC(=O)CNC(=O)CCc1ccc(O)c(OC)c1)C(C)C)C(=O)OCC [Compound 18, Diethyl (3-(4-Hydroxy-3-methoxyphenyl)propanoyl)glycyl-L-valyl-D-glutamate]

- EC50 (NOD2): 10.2 µM
- NOD2 activity at 2 μM (fold increase) (NOD2; 18 h, mean ± SEM): 1.86 ± 0.02 fold increase
- EC50 (NOD2; [3]): 10.2 ± 2.62 µM
Compound: CCOC(=O)[C@@H](CCC(=O)N[C@@H](CCCCN)C(=O)OC)NC(=O)[C@@H](NC(=O)CNC(=O)/C=C/c1ccc(O)c(OC)c1)C(C)C [Compound 41, Methyl ((R)-5-Ethoxy-4-((S)-2-(2-((E)-3-(4-hydroxy-3-methoxyphenyl)acrylamido)acetamido)-3-methylbutanamido)-5-oxopentanoyl)-L-lysinate]

- NOD2 activity at 2 μM (fold increase) (NOD2; 18 h, mean ± SEM): 2.63 ± 0.10 fold increase
- EC50 (NOD2; [3]): 0.049 ± 0.003 µM
Compound: CCOC(=O)CC[C@@H](NC(=O)[C@@H](NC(=O)CNC(=O)C1CC1c1ccc(F)c(F)c1)C(C)C)C(=O)OCC (stereo partly drawn) [Compound 29]

- NOD2 activity at 2 μM (fold increase) (NOD2; 18 h, mean ± SEM): 1.33 ± 0.03 fold increase
Compound: COc1cc(/C=C/C(=O)NCC(=O)N[C@H](C(=O)N[C@H](CCC(=O)OC(C)(C)C)C(=O)N2CCCC2)C(C)C)ccc1O [Compound 64, tert-Butyl (R)-4-((S)-2-(2-((E)-3-(4-Hydroxy-3-methoxyphenyl)acrylamido)acetamido)-3-methylbutanamido)-5-oxo-5-(pyrrolidin-1-yl)pentanoate]

Compound: CCCCNC(=O)CC[C@@H](NC(=O)[C@@H](NC(=O)CNC(=O)/C=C/c1ccc(O)c(OC)c1)C(C)C)C(=O)NCCCC [Compound 58, (R)-N^1,N^5-Dibutyl-2-((S)-2-(2-((E)-3-(4-hydroxy-3-methoxyphenyl)acrylamido)acetamido)-3-methylbutanamido)pentanediamide]
- NOD2 activity at 2 μM (fold increase) (NOD2; 18 h, mean ± SEM): 1.30 ± 0.03 fold increase
